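Cells were grown in 96-well plates and exposed to each compound for 48 hours at five concentrations; endpoints were interpolated linearly between bracketing concentrations, or set to the highest concentration if not reached. TGI marks complete inhibition of growth.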
What was measured:
Test in all cases: growth of human tumour cells (NCI), 48 h
SF-539 CNS = system: SF-539 CNS
ACHN renal = system: ACHN renal
HCC-2998 colon = system: HCC-2998 colon
DMS 114 small cell lung = system: DMS 114 small cell lung
KM12 colon = system: KM12 colon
SW-620 colon = system: SW-620 colon
A549 NSCLC = system: A549 NSCLC
RXF 393 renal = system: RXF 393 renal
NCI-H460 lung = system: NCI-H460 lung
OVCAR-8 ovarian = system: OVCAR-8 ovarian
SNB-75 CNS = system: SNB-75 CNS
A498 renal = system: A498 renal
SNB-78 CNS = system: SNB-78 CNS
OVCAR-5 ovarian = system: OVCAR-5 ovarian
HOP-92 NSCLC = system: HOP-92 NSCLC
HOP-18 NSCLC = system: HOP-18 NSCLC
NCI-H23 lung = system: NCI-H23 lung
SK-MEL-28 melanoma = system: SK-MEL-28 melanoma
COLO 205 colon = system: COLO 205 colon
SNB-19 CNS = system: SNB-19 CNS
SK-OV-3 ovarian = system: SK-OV-3 ovarian
K-562 leukemia = system: K-562 leukemia
LOX IMVI melanoma = system: LOX IMVI melanoma
UACC-62 melanoma = system: UACC-62 melanoma
M14 melanoma = system: M14 melanoma
NCI-H226 lung = system: NCI-H226 lung
IGROV1 ovarian = system: IGROV1 ovarian
HCT-116 colon = system: HCT-116 colon
DLD-1 colon = system: DLD-1 colon
TK-10 renal = system: TK-10 renal
HL-60(TB) leukemia = system: HL-60(TB) leukemia
SR leukemia = system: SR leukemia
SF-295 CNS = system: SF-295 CNS
MOLT-4 leukemia = system: MOLT-4 leukemia
M19-MEL melanoma = system: M19-MEL melanoma
CCRF-CEM leukemia = system: CCRF-CEM leukemia
MALME-3M melanoma = system: MALME-3M melanoma
CAKI-1 renal = system: CAKI-1 renal
LXFL 529 NSCLC = system: LXFL 529 NSCLC
RPMI-8226 leukemia = system: RPMI-8226 leukemia
UACC-257 melanoma = system: UACC-257 melanoma
SF-268 CNS = system: SF-268 CNS
UO-31 renal = system: UO-31 renal
SK-MEL-2 melanoma = system: SK-MEL-2 melanoma
HT29 colon = system: HT29 colon
HCT-15 colon = system: HCT-15 colon
SN12C renal = system: SN12C renal
U251 CNS = system: U251 CNS
SK-MEL-5 melanoma = system: SK-MEL-5 melanoma
OVCAR-4 ovarian = system: OVCAR-4 ovarian
OVCAR-3 ovarian = system: OVCAR-3 ovarian
XF 498 CNS = system: XF 498 CNS
DMS 273 small cell lung = system: DMS 273 small cell lung
KM20L2 colon = system: KM20L2 colon
786-0 renal = system: 786-0 renal
EKVX NSCLC = system: EKVX NSCLC
NCI-H522 lung = system: NCI-H522 lung
HOP-62 NSCLC = system: HOP-62 NSCLC

Measured: TGI

CN(C)c1nc(Oc2nc(N(C)C)nc(N(C)C)n2)nc(N(C)C)n1
not listed: HOP-62 NSCLC
> 100 µM: all other assays above

COc1nc2c(c(O)c(C)c(=O)n2OC2OCC(OC(C)=O)C(OC(C)=O)C2OC(C)=O)c(=O)n1C (stereo not given)
not listed: A498 renal | HOP-92 NSCLC | HOP-18 NSCLC | SK-OV-3 ovarian | HL-60(TB) leukemia | MALME-3M melanoma | CAKI-1 renal | RPMI-8226 leukemia | UACC-257 melanoma | OVCAR-3 ovarian
> 100 µM: all other assays above

From PubChem BioAssay (NCI)
